Where two headings read alike, the source gives them in different places. Blank lines part the entries; values can stand above or below the molecule they belong to. Non-standard residues stand in square brackets, D forms with d. Residues, ends and D or L forms follow the SMILES beside them. Aoe = N[C@@H](CCCCCC(=O)[C@@H]1CO1)C(=O)O
Experiments:
[1] = test system: tubulin acetylation versus lysine acetylation; assay: Immunofluorescence assay for acetylated tubulin versus acetylated lysine; format: cell-based; settings: cells not given
Description: The present invention provides an immunofluorescence-based assay for identifying test agents with HDAC and/or TDAC inhibitory activity. The inventive assay is based on the use of specific antibodies for acetylated tubulin and acetylated lysine (i.e., a marker for acetylated histones). […] As described above, any type of agent, including small molecules, polymers, biomolecules, proteins, peptides, polynucleotides, etc., may be screened using the inventive assay. In certain embodiments, small molecules are screened. In certain particular embodiments, the small molecules are tubacin-like or are tubacin derivatives. In certain embodiments, the small molecules are compounds of the present invention. The test agents may also be small molecules purchased, prepared through traditional synthetic techniques, prepared through combinatorial chemistry techniques, or obtained from historical chemical collections. In certain embodiments, the test agents are biomolecules. In other embodiments, the test agents are proteins or peptides. In yet other embodiments, the test agents are polynucleotides. In certain embodiments, the test agents are polymers.
The assay involves contacting cells with a specific concentration of the test agent under specific conditions. […] There particular parameters may be determined by the operator or scientist conducting the assay as would be appreciated by one of skill in this art. After a determined time of incubation with the test compound, the cells are treated with a first primary antibody directed against acetylated tubulin and a second primary antibody directed against acetylated lysine. […] The signal from each of the secondary antibodies is measured and optionally quantitated to determine the amount of TDAC and HDAC inhibition under the specified conditions with the test agent. Optionally, the extent of inhibition is determined relative to a control in which no test agent was added. In certain embodiments, the secondary antibody is left out and the primary antibodies are uniquely labeled for identification and optionally quantification. […]

[2] = test system: MM.1S and RPMI cells; assay: Synergy with Velcade/Bortezomib in myeloma cell lines; format: cell-based
[3] = target: T1, HDAC6 (Homo sapiens, UniProt Q9UBN7); settings: stated property of control compound; cited from earlier work
T1 sequence (Q9UBN7 1-1215): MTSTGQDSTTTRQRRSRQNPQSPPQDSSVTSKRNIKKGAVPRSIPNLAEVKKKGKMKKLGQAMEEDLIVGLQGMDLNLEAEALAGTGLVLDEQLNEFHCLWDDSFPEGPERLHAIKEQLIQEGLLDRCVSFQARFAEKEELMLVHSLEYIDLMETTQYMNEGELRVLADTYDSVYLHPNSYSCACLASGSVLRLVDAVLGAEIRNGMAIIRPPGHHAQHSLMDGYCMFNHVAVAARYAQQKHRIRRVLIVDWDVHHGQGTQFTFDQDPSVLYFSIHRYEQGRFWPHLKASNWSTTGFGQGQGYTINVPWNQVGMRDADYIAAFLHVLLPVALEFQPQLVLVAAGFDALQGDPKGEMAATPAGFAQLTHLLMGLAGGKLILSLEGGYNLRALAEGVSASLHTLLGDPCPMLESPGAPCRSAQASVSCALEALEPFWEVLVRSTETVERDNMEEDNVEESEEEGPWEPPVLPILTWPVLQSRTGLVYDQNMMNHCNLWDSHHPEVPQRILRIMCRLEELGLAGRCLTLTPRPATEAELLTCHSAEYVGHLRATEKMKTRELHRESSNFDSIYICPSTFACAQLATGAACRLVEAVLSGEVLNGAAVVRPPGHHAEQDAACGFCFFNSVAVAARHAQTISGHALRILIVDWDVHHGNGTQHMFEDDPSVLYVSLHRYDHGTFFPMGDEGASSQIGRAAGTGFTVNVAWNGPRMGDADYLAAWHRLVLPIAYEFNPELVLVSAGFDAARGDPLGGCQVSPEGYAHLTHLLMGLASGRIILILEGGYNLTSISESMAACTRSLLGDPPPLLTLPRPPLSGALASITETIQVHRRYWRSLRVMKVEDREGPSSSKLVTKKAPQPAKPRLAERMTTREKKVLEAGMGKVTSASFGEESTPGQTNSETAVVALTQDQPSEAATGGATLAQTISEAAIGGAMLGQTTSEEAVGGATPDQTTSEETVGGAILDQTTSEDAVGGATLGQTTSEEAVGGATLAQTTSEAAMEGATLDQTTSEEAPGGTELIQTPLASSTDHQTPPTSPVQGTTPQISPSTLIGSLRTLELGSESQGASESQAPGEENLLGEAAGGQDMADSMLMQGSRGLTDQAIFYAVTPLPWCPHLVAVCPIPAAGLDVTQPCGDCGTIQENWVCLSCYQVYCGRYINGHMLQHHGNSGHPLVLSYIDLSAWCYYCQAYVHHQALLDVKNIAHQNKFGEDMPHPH

[4] = test system: RPMI8226 cells; settings: 24 h
Method: The inhibitory effect of bortezomib and/or tubacin on MM cell growth was assessed by measuring 3-(4,5-dimethylthiazol-2-yl)-2,5-diphenyl tetrazolium bromide (MTT) dye absorbance, as described previously (33). Cells from 48 h cultures were pulsed with 10 μl of 5 mg/ml MTT to each well for the last 4 h of 48 h cultures, followed by 100 μl isopropanol containing 0.04N HCl. Absorbance was measured at 570 nm using a spectrophotometer (Molecular Devices Corp., Sunnyvale Calif.). All experiments were performed in quadruplicate.

[5] = test system: JNK phosphorylation and caspase/PARP cleavage; assay: Western blotting for p21Cip1, p-JNK, caspases and PARP; format: cell-based, human; settings: MM.1S cells, tubacin 5 μM and/or bortezomib 5 nM, 24 h
Method: (§1) MM cells were cultured with Velcade and/or Tubacin; harvested; washed; and lysed using lysis buffer: 50 mM Tris-HCl (pH 7.4), 150 mM NaCl, 1% NP-40, 5 mM EDTA, 5 mM NaF, 2 mM Na3VO4, 1 mM PMSF, 5 μg/ml leupeptine, and 5 μg/ml aprotinin. Cell lysates were subjected to SDS-PAGE, transferred to PVDF membrane (Bio-Rad Laboratories, Hercules, Calif.), and immunoblotted with Abs against specific proteins.
(§2) Cells cultured with tubacin and/or bortezomib were harvested; washed, and lysed using lysis buffer: 50 mM Tris-HCl (pH 7.4), 150 mM NaCl, 1% NP-40, 5 mM EDTA, 5 mM NaF, 1 mM Na3VO4, 1 mM PMSF, 5 μg/ml leupeptine, and 5 μg/ml aprotinin. Whole cell lysates were subjected to SDS-PAGE, transferred to nitrocellulose membrane (Bio-Rad Laboratories, Hercules, Calif.), and immunoblotted with specific Abs (31). Western blotting was done using anti-HDAC6, acetylated lysine, acetylated histone H3, acetylated histone H4, ubiquitin (Ub), phospho-SAPK (JNK), caspase-8 caspase-9, caspase-3, and PARP Abs (Cell Signaling, Beverly, Mass.); with anti-α-tubulin Ab (Santa Cruz Biotechnology, Santa Cruz, Calif.); as well as with anti-dynein Ab (Sigma, Saint Louis, Mo.). For immunoprecipitation, whole cell lysates were incubated with anti-Ub or dynein Abs overnight at 4° C., and then incubated with protein A/G PLUS-Agarose (Santa Cruz Biotechnology) for 2 h at 4° C., as in our prior study (31). Immunoprecipitates were then subjected to Western blotting for detection of HDAC6 and dynein.

[6] = test system: MM.1S cells and RPMI cells; assay: Inhibition of protein catabolism in myeloma cells; format: cell-based; settings: FIG. 18
[7] = test system: MM.1S and RPMI8226 cells; assay: [3H]-thymidine uptake of MM cells adherent to BMSCs; format: cell-based, human; settings: MM cells adherent to BMSCs, 24 h
Method: […] DNA synthesis was measured as described above.
After treatment, DNA synthesis was measured by [^3H]-thymidine (Perkin Elmer, Boston Mass.) uptake, as previously described (44). All experiments were performed in quadruplicate.

[8] = test system: MM.1S cells; assay: Cell cycle profile by flow cytometry (PI staining); format: cell-based, human; settings: bortezomib 5 nM alone, 24 h; increased from 14.2%
Method: […] Cells were then stained with propidium iodine (PI, Sigma) (5 μg/ml) and cell cycle profile was determined using program M software on an Epics flow cytometer (Coulter Immunology, Hialeah, Fla.) (44).

[9] = test system: patients with refractory relapsed MM; settings: 202 patients; cited from earlier work
[10] = target: T1, HDAC6; assay: Western blotting with anti-acetylated lysine / HDAC6 Abs; format: cell-based; design: MM.1S, U266, INA-6, RPMI8226, and RPMI-LR5 MM cell lines constitutively express HDAC6; endogenous in cells; host or cells: MM.1S, RPMI8226 and other MM cell lines; MM patient BMPCs/PBMCs; settings: niltubacin 2.5 and 5 μM, 24 h, MM.1S cells
Method: as §1, §2

[11] = test system: MM.1S cells; assay: MTT assay with niltubacin or HDAC6 siRNA, with or without bortezomib; format: cell-based, human; settings: niltubacin 2.5 and 5 μM, 5 nM bortezomib
Method: The inhibitory effect of bortezomib and/or tubacin on MM cell growth was assessed by measuring 3-(4,5-dimethylthiazol-2-yl)-2,5-diphenyl tetrazolium bromide (MTT) dye absorbance, as described previously (33). […] All experiments were performed in quadruplicate.
MM.1S cells were transiently transfected with HDAC6 siRNA (Dharmacon Inc., Lafayette, Colo.) using “Cell Line Nucleofecto™ Kit V,” according to manufacturer's (Amaxa Biosystems, Gaithersburg, Md.) instructions (33). Following transfection, MM.1S cells were subjected to Western blotting and MTT assay, in the presence or absence of bortezomib.

Compound: O=C(CCCCCCC(=O)Nc1ccc(C2OC(CSc3nc(-c4ccccc4)c(-c4ccccc4)o3)CC(c3ccccc3)O2)cc1)NO (centres unmarked) [DHM-Tubacin, des(hydromethyl)-Tubacin]
specificity for tubulin acetylation versus lysine acetylation [1]: specificity
synergy with Velcade ([2]; MM.1S and RPMI cells): synergy

Compound: Cc1[nH]c2ccccc2c1CCNCc1ccc(/C=C/C(=O)NO)cc1 [LBH589, reference compound]
toxicity and synergy with Bortezomib ([2]; MM.1S cells): toxicity and synergy
toxicity and synergy with Bortezomib ([2]; RPMI-8226 cells): toxicity and synergy

Compound: CC(/C=C/C(=O)NO)=C\[C@@H](C)C(=O)c1ccc(N(C)C)cc1 [Trichostatin]
inhibition of HDAC6 [3]: potent inhibitor of both HDAC6 domains

Compound: CC(C)C[C@H](NC(=O)[C@H](Cc1ccccc1)NC(=O)c1cnccn1)B(O)O [bortezomib]
RPMI8226 cell death ([4]; 5 nM bortezomib alone): 26%
RPMI8226 cell death ([4]; 10 nM bortezomib alone): 66%
phosphorylation of JNK and caspase/PARP cleavage [5]: induces only modest phosphorylation of JNK as well as caspase-9, -8, -3 and PARP cleavage
inhibition of protein catabolism [6]: potent inhibitors of protein catabolism
BMSC-induced [3H]-thymidine uptake / MM cell growth with BMSCs, single agent [7]: inhibits BMSC-induced [^3H]-thymidine uptake in a dose-dependent fashion
G2M phase MM.1S cells [8]: 39.5%
complete and near complete responses [9]: 10%
patients who did not respond [9]: 65%
responses [9]: 35%

acetylation of α-tubulin [10]: does not affect
Compound: O=C(O)CCCCCCC(=O)Nc1ccc([C@H]2O[C@@H](CSc3nc(-c4ccccc4)c(-c4ccccc4)o3)C[C@@H](c3ccc(CO)cc3)O2)cc1 [niltubacin, reference compound]
enhancement of cytotoxicity induced by bortezomib [11]: does not affect either acetylation of α-tubulin (FIG. 4F) or enhance cytotoxicity

Compound: O=C1N[C@@H](Cc2ccccc2)C(=O)N2CCC[C@@H]2C(=O)N[C@@H](CCCCCC(=O)[C@@H]2CO2)C(=O)N[C@H]1Cc1ccccc1 [trapoxin] (cyclo(FF[dP][Aoe]))
inhibition of HDAC6 [3]: does not inhibit HDAC6

Reference: US10172905B1, “Treatment of protein degradation disorders” (President and Fellows of Harvard College, priority 2005, dated 2019)
